One data set has as its system PC-3 (p53, del). Kind of data set: MTT cytotoxicity assay, PC-3. Conditions: Homo sapiens, 96 hr. In kind it is cell-based. The procedure:
(§1) To evaluate the cytotoxic activity of the two compounds, human prostate cancer cells (PC-3, LNCaP, and DU145) were plated into 96-well plate and incubated for 96 hr with various concentrations of desired drugs. During the last 2 hr, MTT (3-(4,5-dimethylthiazol-2-yl)-2,5-diphenyltetrazolium bromide) was added and the dark-blue formazan formed in live cells was dissolved in dimethyl sulfoxide and the absorbance was measured with a FLUOstar Optima microplate reader (BMG LABTECH Inc., Durham, N.C.) at 570 nm. The IC50 was defined as the concentration of a drug that inhibited cell growth by 50% (see Dong et al, supra, and Dong Z, et al. “Organ-specific modulation of steady-state mdr gene expression and drug resistance in murine colon cancer cells” J. Natl. Cancer Inst 1994;86(12):913-20, both references fully incorporated herein by this reference).

The next data set relates to DU145 (p53, mt). The data set is described as follows: MTT cytotoxicity assay, DU145. In kind it is cell-based. Conditions: Homo sapiens, DU-145, 96 hr. The protocol: as §1
For orientation: Tetrazolium assays rely on reduction of a dye to a coloured formazan, in cell work by metabolically active cells.

The subject of a further data set is CT-26 (colon). Kind of data set: MTT cytotoxicity assay, CT-26. Conditions: CT26, mouse cells, parental. In kind it is cell-based. The procedure:
as §1
(§2) In addition, the present inventors discovered that the compounds could also effectively kill human breast (MCF-7 and MDA435) and melanoma (A375) cells, as well as several lines of mouse tumor cells, with similar potencies (Table 1). Moreover, DL-001 could effectively kill endothelial cells derived from mouse lung and prostate (Table 1). Furthermore, it appears that tumor cells (LNCaP, MCF-7, and A375) that harbor the wildtype p53 tumor suppressor gene were relatively more sensitive to DL-001 (Table 1).

The test system of a further data set is CT-26 (colon, MDR). Kind of data set: MTT cytotoxicity assay, CT-26 MDR. Conditions: Mus musculus, CT26, multidrug resistant. The class given is cell-based. The protocol:
as §1, §2

For another data set, the system named is caspase 2. Kind of data set: Fluorometric caspase assay in PC-3MM2 cells, caspase 2. The class given is cell-based, human. Conditions: 50 nM, 24 hr. The procedure:
(§3) Taxol is known to kill tumor cells by inducing arrest of cells at […] cell cycle and apoptosis. To identify mechanisms by which DL-001 killed tumor cells, we compared effects of DL-001 and Taxol on PC-3MM2 cells. […] To verify the role of DL-001 in inducing apoptosis, the activity of caspase 2,3,6,8 and 9 was analyzed. PC-3MM2 cells are treated with 50 nM of DL-001, taxol, or vincristine for 24 hr. Caspase activities in the treated cells are assessed by using a fluorometric caspase assay kit (Bio Vision, Mountain View, Calif.).

The next data set concerns caspase 3. Kind of data set: Fluorometric caspase assay in PC-3MM2 cells, caspase 3. The class given is cell-based, human. Conditions: 50 nM, 24 hr. The procedure:
as §3

The test system of another data set is caspase 6. The data set is described as follows: Fluorometric caspase assay in PC-3MM2 cells, caspase 6. Conditions: 50 nM, 24 hr. The class given is cell-based, human. The protocol: as §3
Another data set has as its system caspase 8. The data set is described as follows: Fluorometric caspase assay in PC-3MM2 cells, caspase 8. Conditions: 50 nM, 24 hr. In kind it is cell-based, human. The protocol: as §3
For a further data set, the system named is caspase 9. The data set is described as follows: Fluorometric caspase assay in PC-3MM2 cells, caspase 9. In kind it is cell-based, human. Conditions: 50 nM, 24 hr. The procedure:
as §3

The subject of another data set is PC-3MM2 cells. Kind of data set: Cell cycle and apoptosis in PC-3MM2 cells. In kind it is cell-based, human. The procedure: as §3
The subject of a further data set is LNCaP (p53, wt). The data set is described as follows: MTT cytotoxicity assay, LNCaP. In kind it is cell-based. Conditions: Homo sapiens, 96 hr. The procedure: as §1
A further data set deals with MCF-7 (p53, wt). The data set is described as follows: MTT cytotoxicity assay, MCF-7. In kind it is cell-based. Conditions: Homo sapiens, MCF7. The protocol: as §1, §2
The subject of another data set is MDA435 (p53, mt). Kind of data set: MTT cytotoxicity assay, MDA435. In kind it is cell-based. Conditions: Homo sapiens. The protocol: as §1, §2
In a further data set the test system is A375 (p53, wt). The data set is described as follows: MTT cytotoxicity assay, A375. The class given is cell-based. Conditions: Homo sapiens, A-375. The protocol:
as §1, §2

In the next data set the test system is TRAMP (prostate). Kind of data set: MTT cytotoxicity assay, TRAMP. The class given is cell-based. Conditions: mouse cells. The protocol:
as §1, §2

The test system of the next data set is 4T1 (breast). Kind of data set: MTT cytotoxicity assay, 4T1. In kind it is cell-based. Conditions: mouse cells. The protocol:
as §1, §2

The subject of another data set is B16 (melanoma). The data set is described as follows: MTT cytotoxicity assay, B16. The class given is cell-based. Conditions: mouse cells. The procedure:
as §1, §2

The subject of the next data set is UV2237 (fibrosarcoma). The data set is described as follows: MTT cytotoxicity assay, UV2237. Conditions: mouse cells. In kind it is cell-based. The protocol:
as §1, §2

For data set [1], the system named is mouse endothelial cells, lung. The data set is described as follows: MTT cytotoxicity assay, lung endothelial cells. Conditions: Endothelial cell. In kind it is cell-based. The protocol: as §1, §2
The subject of data set [2] is mouse endothelial cells, prostate. The data set is described as follows: MTT cytotoxicity assay, prostate endothelial cells. In kind it is cell-based. Conditions: Endothelial cell. The protocol: as §1, §2
The test system of a further data set is PC-3MM2 tumors. Kind of data set: Orthotopic model of PC-3 human prostate cancer cells in nude mice. Conditions: for toxic side effects on mice: based on body weight and H & E-stained sections of heart, lung, liver, kidney, spleen. In kind it is in vivo. The protocol:
PC-3MM2 cells are implanted into the prostate of nude mice. The therapy begins 3 days later, when tumors are established, by daily intraperitoneal injection of DL-001 at 10 mg/kg or 20 mg/kg of body weight or of DMSO (solvent). Experiments are terminated 3 weeks later.

Marks after values point to notes of the source that are not given here.

By IC50 is commonly meant the midpoint of a concentration-inhibition curve. `CC(=O)O[C@H]1C(=O)[C@@]2(C)[C@H]([C@H](OC(=O)c3ccccc3)[C@]3(O)C[C@H](OC(=O)[C@H](O)[C@@H](NC(=O)c4ccccc4)c4ccccc4)C(C)=C1C3(C)C)[C@]1(OC(C)=O)CO[C@@H]1C[C@@H]2O` [Taxol]: the IC50 in the data set with PC-3 (p53, del) was determined as 4 nM; with DU145 (p53, mt), 3 nM; in the data set with CT-26 (colon), 73 nM; in the data set with CT-26 (colon, MDR), 367 nM. Also, the “Fold change of caspase activity compared with that in control cells, caspase 2” value (shortened to “Fold change of caspase activity … caspase 2”) with caspase 2 is 26 fold. In the data set with caspase 3, the “Fold change of caspase activity compared with that in control cells, caspase 3” value (shortened to “Fold change of caspase activity … caspase 3”) is listed as 34 fold. In the data set with caspase 6, the “Fold change of caspase activity compared with that in control cells, caspase 6” value (shortened to “Fold change of caspase activity … caspase 6”) is given as 1 fold. For the same compound, the “Fold change of caspase activity compared with that in control cells, caspase 8” value (shortened to “Fold change of caspase activity … caspase 8”) with caspase 8 is listed as 1 fold. Moreover, the “Fold change of caspase activity compared with that in control cells, caspase 9” value (shortened to “Fold change of caspase activity … caspase 9”) with caspase 9 was determined as 7 fold. Besides, the “effect on cell cycle and apoptosis” value in the data set with PC-3MM2 cells was “arrested at S/G2 checkpoint of cell cycle and went into apoptosis”.
In the case of `COc1ccc(C(=O)c2cc([N+](=O)O)ccc2N2CCCCC2)cc1` (racemic) [DL-001, (4-Methoxy-phenyl)-(5-nitro-2-piperidin-1-yl-phenyl)-methanone], the IC50 with PC-3 (p53, del) stood at 32 nM; in the data set with LNCaP (p53, wt) it was 11 nM; in the data set with DU145 (p53, mt), 28 nM; with MCF-7 (p53, wt) it was 17 nM; in the data set on MDA435 (p53, mt) it was 30 nM; with A375 (p53, wt), 23 nM. Also, the IC50 was determined as 41 nM in the data set on TRAMP (prostate); 30 nM in the data set with 4T1 (breast); 26 nM with B16 (melanoma); 35 nM in the data set with UV2237 (fibrosarcoma); 39 nM in the data set on CT-26 (colon); 39 nM with CT-26 (colon, MDR). Also, the results for the IC50 in data set [1] and in [2] were 45 nM and 51 nM, respectively. Also, the “Fold change of caspase activity … caspase 2” value with caspase 2 is reported as 17* fold. The “Fold change of caspase activity … caspase 3” value with caspase 3 stood at 22 fold. Further, the “Fold change of caspase activity … caspase 6” value with caspase 6 is 1 fold. The “Fold change of caspase activity … caspase 8” value in the data set with caspase 8 worked out at 1 fold. In addition, the “Fold change of caspase activity … caspase 9” value in the data set with caspase 9 was 4 fold. In addition, in the data set on PC-3MM2 tumors, the “toxic side effects on mice” value is “did not produce significant toxic side effects”. The “growth of PC-3MM2 tumors in the prostate of nude mice” value in the data set on PC-3MM2 tumors (daily intraperitoneal injection, 10 mg/kg or 20 mg/kg (DL-001), from day 3, terminated 3 weeks later) is recorded as “inhibited growth of PC-3MM2 tumors in dose-dependent manner”. Moreover, in the data set with PC-3MM2 cells, the “effect on cell cycle and apoptosis” value was “arrested at S/G2 checkpoint of cell cycle and went into apoptosis”.
On to `COc1ccc(C(=O)c2cc([N+](=O)O)ccc2N2CCOCC2)cc1` (racemic) [DL-002, (4-Methoxy-phenyl)-(2-morpholin-4-yl-5-nitro-phenyl)-methanone], for which the IC50 came to 30 nM in the data set with PC-3 (p53, del) and 30 nM in the data set with DU145 (p53, mt). Further, the “toxic side effects on mice” value with PC-3MM2 tumors was “did not produce significant toxic side effects”.
With `CC[C@]1(O)C[C@H]2CN(CCc3c([nH]c4ccccc34)[C@@](C(=O)OC)(c3cc4c(cc3OC)N(C=O)[C@H]3[C@@](O)(C(=O)OC)[C@H](OC(C)=O)[C@]5(CC)C=CCN6CC[C@]43[C@@H]65)C2)C1` [Vincristine, vincristine], the IC50 with PC-3 (p53, del) stood at 4 nM; in the data set on DU145 (p53, mt), 5 nM; in the data set on CT-26 (colon), 16 nM; in the data set with CT-26 (colon, MDR), 38 nM. Moreover, the “Fold change of caspase activity … caspase 2” value in the data set on caspase 2 amounted to 18 fold. Moreover, the “Fold change of caspase activity … caspase 3” value with caspase 3 is listed as 24 fold. The “Fold change of caspase activity … caspase 6” value in the data set with caspase 6 amounted to 1 fold. Also, the “Fold change of caspase activity … caspase 8” value in the data set with caspase 8 amounted to 1 fold. Also, in the data set with caspase 9, the “Fold change of caspase activity … caspase 9” value was 4 fold.

The values are drawn from patent US20070054908A1, “Novel pharmaceutical compositions and methods for treating tumors, including drug-resistant tumors” (priority 2005, published 2007).
